Measured values taken from patent US11208412B2 (DAEGU-GYEONGBUK MEDICAL INNOVATION FOUNDATION, priority 2017, dated 2021).

Tests used:
Assay in all cases: Kinase selectivity, DiscoverX scanMAX Kinase assay panel (% control)
Type in all cases: binding
[1] = biological target: T1, kinases of the scanMAX Kinase assay panel (Homo sapiens, UniProt Q04771); conditions: ACVR1; 1 uM
T1 construct: purchased DiscoverX Co. (contract measurement) scanMAX Kinase assay panel
T1 sequence (Q04771 21-509): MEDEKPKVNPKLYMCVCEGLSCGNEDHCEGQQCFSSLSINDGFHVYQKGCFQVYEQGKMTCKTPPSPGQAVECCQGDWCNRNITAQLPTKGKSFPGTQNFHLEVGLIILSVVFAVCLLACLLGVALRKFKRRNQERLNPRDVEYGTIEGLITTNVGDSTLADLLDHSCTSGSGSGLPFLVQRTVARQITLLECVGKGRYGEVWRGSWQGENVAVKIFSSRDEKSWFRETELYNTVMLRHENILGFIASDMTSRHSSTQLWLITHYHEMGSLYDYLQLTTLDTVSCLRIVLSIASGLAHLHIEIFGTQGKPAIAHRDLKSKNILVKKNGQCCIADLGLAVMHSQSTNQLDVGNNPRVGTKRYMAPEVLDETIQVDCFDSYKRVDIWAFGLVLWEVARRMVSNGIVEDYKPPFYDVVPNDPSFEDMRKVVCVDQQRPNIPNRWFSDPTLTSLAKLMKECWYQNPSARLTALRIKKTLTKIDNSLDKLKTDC
Summary of the method: (§1)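 Compounds were tested at 1 uM (in DMSO) against each panel kinase. % control was calculated as (compound − positive control)/(negative control − positive control)×100, where the positive control gives 0% and DMSO gives 100%. Activity toward a kinase was called at % control <35%.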

[2] = biological target: T2, kinases of the scanMAX Kinase assay panel (Homo sapiens, UniProt Q9BYT3); conditions: kinase STK33; 1 uM in DMSO
T2 construct: purchased DiscoverX Co. (contract measurement) scanMAX Kinase assay panel
Summary of the method: as §1

[3] = biological target: T3, kinases of the scanMAX Kinase assay panel (Homo sapiens, UniProt Q9Y2H1); conditions: NDR2; 1 uM
T3 construct: purchased DiscoverX Co. (contract measurement) scanMAX Kinase assay panel
Summary of the method: as §1

[4] = biological target: T4, kinases of the scanMAX Kinase assay panel (Homo sapiens, UniProt P35916); conditions: FLT4; 1 uM
T4 construct: purchased DiscoverX Co. (contract measurement) scanMAX Kinase assay panel
Summary of the method: as §1

[5] = biological target: T5, kinases of the scanMAX Kinase assay panel (Homo sapiens, UniProt P30291); conditions: kinase WEE1; 1 uM in DMSO
T5 construct: purchased DiscoverX Co. (contract measurement) scanMAX Kinase assay panel
Summary of the method: as §1

[6] = biological target: T6, kinases of the scanMAX Kinase assay panel (Homo sapiens, UniProt Q8WU08); conditions: kinase YANK1; 1 uM in DMSO
T6 construct: purchased DiscoverX Co. (contract measurement) scanMAX Kinase assay panel
Summary of the method: as §1

[7] = biological target: T7, kinases of the scanMAX Kinase assay panel (Homo sapiens, UniProt Q09013); conditions: DMPK; 1 uM
T7 construct: purchased DiscoverX Co. (contract measurement) scanMAX Kinase assay panel
T7 sequence (Q09013 1-629): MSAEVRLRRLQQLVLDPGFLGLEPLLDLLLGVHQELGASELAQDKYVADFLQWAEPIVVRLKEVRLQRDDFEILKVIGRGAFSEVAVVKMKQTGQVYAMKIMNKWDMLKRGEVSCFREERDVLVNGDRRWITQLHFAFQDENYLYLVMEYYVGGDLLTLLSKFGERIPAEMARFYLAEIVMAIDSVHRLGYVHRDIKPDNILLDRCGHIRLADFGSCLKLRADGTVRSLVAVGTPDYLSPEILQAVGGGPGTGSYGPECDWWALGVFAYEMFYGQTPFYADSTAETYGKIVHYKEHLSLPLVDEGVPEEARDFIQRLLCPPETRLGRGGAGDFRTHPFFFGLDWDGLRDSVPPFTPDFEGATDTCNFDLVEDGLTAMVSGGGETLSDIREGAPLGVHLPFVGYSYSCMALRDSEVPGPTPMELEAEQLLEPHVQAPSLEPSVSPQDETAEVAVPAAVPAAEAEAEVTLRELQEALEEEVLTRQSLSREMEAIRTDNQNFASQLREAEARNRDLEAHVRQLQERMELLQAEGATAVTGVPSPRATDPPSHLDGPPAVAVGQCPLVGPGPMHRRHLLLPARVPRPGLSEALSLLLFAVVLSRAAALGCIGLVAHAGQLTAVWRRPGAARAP
Summary of the method: as §1

[8] = biological target: T8, kinases of the scanMAX Kinase assay panel (Homo sapiens, UniProt P78356); conditions: PIP5K2B; 1 uM
T8 construct: purchased DiscoverX Co. (contract measurement) scanMAX Kinase assay panel
T8 sequence (P78356 1-416): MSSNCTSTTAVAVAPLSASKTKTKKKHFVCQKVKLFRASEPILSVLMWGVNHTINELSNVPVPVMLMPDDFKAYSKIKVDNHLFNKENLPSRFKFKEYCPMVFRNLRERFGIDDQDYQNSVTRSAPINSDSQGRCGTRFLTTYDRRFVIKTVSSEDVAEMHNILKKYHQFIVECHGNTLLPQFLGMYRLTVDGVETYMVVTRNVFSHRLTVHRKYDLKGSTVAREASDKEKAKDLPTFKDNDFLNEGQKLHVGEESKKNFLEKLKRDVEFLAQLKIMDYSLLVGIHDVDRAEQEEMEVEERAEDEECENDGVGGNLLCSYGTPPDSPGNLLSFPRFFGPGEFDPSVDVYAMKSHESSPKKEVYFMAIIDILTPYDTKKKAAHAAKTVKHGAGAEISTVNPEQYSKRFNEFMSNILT
Summary of the method: as §1

[9] = biological target: T9, kinases of the scanMAX Kinase assay panel (Homo sapiens, UniProt P06241); conditions: FYN; 1 uM
T9 construct: purchased DiscoverX Co. (contract measurement) scanMAX Kinase assay panel
Summary of the method: as §1

[10] = biological target: T10, kinases of the scanMAX Kinase assay panel (Homo sapiens, UniProt P32298); conditions: GRK4; 1 uM
T10 construct: purchased DiscoverX Co. (contract measurement) scanMAX Kinase assay panel
Summary of the method: as §1

T9 sequence (P06241 whole entry): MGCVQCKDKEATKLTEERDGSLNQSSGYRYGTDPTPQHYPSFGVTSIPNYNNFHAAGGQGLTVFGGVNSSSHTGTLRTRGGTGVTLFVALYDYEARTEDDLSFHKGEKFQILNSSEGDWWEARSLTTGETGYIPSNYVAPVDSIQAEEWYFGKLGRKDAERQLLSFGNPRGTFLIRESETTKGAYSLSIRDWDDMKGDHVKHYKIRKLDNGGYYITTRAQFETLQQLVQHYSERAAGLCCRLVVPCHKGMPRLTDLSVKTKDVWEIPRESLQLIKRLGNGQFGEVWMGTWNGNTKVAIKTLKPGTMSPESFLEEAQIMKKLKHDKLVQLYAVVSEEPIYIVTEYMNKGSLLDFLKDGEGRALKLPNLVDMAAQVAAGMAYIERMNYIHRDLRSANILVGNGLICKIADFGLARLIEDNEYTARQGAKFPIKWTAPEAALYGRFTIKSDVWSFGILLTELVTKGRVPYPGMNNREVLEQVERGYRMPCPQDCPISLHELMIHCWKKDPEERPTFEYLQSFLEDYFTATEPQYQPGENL
T4 sequence (P35916 25-1363): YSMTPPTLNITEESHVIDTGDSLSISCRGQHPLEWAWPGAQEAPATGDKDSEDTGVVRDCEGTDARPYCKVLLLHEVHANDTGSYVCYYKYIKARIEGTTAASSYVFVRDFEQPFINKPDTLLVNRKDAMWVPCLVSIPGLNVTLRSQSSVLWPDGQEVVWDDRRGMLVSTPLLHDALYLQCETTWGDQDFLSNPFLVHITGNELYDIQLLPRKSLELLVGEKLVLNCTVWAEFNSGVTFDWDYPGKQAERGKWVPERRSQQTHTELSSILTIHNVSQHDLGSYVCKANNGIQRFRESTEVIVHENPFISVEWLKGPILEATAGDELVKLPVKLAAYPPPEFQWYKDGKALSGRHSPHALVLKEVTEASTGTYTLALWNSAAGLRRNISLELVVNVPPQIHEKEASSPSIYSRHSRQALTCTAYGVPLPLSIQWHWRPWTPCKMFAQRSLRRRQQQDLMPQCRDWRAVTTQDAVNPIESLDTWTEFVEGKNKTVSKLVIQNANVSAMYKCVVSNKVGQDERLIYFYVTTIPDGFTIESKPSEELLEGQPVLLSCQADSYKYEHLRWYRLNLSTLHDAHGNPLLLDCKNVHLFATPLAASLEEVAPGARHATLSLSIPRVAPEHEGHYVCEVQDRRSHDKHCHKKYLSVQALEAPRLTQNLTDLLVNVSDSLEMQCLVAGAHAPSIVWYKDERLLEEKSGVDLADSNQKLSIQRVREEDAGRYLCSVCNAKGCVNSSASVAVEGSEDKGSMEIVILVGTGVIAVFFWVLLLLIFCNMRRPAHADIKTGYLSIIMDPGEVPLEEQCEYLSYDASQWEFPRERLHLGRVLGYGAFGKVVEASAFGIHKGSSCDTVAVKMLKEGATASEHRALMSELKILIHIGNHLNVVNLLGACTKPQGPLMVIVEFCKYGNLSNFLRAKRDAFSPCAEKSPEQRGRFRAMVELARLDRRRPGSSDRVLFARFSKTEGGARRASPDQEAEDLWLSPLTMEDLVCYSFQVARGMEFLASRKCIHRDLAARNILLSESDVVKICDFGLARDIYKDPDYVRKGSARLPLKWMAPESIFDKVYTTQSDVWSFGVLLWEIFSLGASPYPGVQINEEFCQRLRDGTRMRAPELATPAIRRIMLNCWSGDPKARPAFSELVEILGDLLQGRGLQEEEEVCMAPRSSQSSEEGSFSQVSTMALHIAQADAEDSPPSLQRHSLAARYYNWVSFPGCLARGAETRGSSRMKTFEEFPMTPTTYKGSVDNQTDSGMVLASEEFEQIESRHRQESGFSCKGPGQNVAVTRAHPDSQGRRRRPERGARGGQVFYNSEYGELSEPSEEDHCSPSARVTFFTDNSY
T5 sequence (P30291 whole entry): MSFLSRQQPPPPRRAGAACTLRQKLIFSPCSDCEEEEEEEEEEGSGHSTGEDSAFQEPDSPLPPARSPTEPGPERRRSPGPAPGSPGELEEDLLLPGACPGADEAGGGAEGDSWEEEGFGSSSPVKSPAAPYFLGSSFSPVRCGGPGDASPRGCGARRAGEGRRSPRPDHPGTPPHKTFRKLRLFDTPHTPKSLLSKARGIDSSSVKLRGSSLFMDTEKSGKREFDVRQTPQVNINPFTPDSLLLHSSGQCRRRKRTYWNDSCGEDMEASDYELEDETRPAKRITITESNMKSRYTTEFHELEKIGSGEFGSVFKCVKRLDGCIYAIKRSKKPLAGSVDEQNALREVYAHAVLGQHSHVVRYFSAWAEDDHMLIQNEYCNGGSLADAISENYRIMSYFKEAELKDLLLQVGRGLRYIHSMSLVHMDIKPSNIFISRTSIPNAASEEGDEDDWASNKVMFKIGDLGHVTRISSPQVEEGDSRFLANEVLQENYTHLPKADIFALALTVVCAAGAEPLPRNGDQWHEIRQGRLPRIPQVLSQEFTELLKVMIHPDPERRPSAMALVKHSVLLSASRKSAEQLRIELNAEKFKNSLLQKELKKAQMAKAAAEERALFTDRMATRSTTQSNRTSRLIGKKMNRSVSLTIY
T2 sequence (Q9BYT3 whole entry): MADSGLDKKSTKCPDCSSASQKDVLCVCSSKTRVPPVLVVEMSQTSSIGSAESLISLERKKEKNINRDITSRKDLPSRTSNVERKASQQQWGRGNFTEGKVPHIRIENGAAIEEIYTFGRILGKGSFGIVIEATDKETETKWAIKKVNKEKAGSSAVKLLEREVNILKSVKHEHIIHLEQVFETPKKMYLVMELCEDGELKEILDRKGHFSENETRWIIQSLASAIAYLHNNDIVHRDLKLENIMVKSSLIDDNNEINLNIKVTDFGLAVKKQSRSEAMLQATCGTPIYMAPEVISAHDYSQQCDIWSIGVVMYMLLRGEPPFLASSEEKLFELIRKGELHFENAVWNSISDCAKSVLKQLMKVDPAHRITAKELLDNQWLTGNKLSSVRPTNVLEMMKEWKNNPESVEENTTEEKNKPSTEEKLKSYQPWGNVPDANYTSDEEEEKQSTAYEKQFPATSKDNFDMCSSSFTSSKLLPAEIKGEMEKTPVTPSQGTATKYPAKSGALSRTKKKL
T3 sequence (Q9Y2H1 whole entry): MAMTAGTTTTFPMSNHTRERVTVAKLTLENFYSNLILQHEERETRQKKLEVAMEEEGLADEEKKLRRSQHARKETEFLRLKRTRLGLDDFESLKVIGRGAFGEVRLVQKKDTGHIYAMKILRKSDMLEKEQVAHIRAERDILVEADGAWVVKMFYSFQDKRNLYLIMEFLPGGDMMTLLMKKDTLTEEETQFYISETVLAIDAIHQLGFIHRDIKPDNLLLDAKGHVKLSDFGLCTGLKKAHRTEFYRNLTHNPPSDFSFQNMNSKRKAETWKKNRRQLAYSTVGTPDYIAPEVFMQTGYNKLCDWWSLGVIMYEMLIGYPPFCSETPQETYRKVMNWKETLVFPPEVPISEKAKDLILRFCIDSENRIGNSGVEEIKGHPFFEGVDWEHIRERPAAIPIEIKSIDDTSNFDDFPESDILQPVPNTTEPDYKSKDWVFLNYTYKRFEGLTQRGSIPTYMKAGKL
T10 sequence (P32298 whole entry): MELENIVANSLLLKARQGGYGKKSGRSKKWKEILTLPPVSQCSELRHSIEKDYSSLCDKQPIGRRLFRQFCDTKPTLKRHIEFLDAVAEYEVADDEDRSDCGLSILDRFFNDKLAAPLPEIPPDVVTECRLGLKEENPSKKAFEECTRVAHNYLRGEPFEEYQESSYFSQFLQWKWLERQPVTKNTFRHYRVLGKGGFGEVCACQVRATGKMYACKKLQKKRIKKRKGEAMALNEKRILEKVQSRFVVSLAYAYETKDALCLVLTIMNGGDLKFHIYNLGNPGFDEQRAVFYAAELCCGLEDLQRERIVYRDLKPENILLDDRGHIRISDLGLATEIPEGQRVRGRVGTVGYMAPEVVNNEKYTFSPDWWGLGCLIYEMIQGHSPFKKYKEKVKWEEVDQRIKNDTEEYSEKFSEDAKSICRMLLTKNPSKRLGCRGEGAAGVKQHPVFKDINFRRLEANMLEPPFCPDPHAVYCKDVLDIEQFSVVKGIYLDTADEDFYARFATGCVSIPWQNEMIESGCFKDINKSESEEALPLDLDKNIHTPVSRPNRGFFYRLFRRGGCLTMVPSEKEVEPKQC
T6 sequence (Q8WU08 whole entry): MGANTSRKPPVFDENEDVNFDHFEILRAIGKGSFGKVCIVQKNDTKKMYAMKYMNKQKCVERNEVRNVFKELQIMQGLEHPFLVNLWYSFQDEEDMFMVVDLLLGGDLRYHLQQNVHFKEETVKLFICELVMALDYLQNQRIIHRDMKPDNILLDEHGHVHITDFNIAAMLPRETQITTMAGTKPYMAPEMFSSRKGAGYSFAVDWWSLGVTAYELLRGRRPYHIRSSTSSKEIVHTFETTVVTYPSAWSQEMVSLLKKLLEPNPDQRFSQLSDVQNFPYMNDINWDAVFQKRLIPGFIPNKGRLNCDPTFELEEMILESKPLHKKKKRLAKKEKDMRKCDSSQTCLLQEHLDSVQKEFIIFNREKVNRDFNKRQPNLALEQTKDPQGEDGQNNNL

Structure (SMILES): CCNc1nc(Nc2ccc(C(=O)N3CCC(N4CCOCC4)CC3)cc2OC)nc2[nH]cc(C(F)(F)F)c12 [Example 104, (4-((4-(ethylamino)-5-(trifluoromethyl)-7H-pyrrolo[2,3-d]pyrimidine-2-yl)amino)-3-methoxyphenyl)(4-morpholinopiperidine-1-yl)methanone]
- remaining binding at 1 µM [1]: 100%
- remaining binding at 1 µM [2]: 13%
- remaining binding at 1 µM [3]: 100%
- remaining binding at 1 µM [4]: 97%
- remaining binding at 1 µM [5]: 100%
- remaining binding at 1 µM [6]: 82%
- remaining binding at 1 µM [7]: 100%
- remaining binding at 1 µM [8]: 100%
- remaining binding at 1 µM [9]: 100%
- remaining binding at 1 µM [10]: 100%

Structure (SMILES): CNc1nc(Nc2ccc(C(=O)N3CCOCC3)cc2OC)nc2[nH]cc(C#N)c12 [Example 1, 2-((2-methoxy-4-(morpholine-4-carbonyl)phenyl)amino)-4-(methylamino)-7H-pyrrolo[2,3-d]pyrimidine-5-carbonitrile]
- remaining binding at 1 µM [1]: 97%
- remaining binding at 1 µM [2]: 18%
- remaining binding at 1 µM [3]: 98%
- remaining binding at 1 µM [4]: 100%
- remaining binding at 1 µM [5]: 78%
- remaining binding at 1 µM [6]: 76%
- remaining binding at 1 µM [7]: 100%
- remaining binding at 1 µM [8]: 100%
- remaining binding at 1 µM [9]: 100%
- remaining binding at 1 µM [10]: 92%

Structure (SMILES): CC1(Nc2nc(Nc3cnn([C@H]4CCN(C5COC5)C[C@@H]4F)c3Cl)nc3[nH]cc(C#N)c23)CC1 [Example 52, 2-((5-chloro-1-((3S,4S)-3-fluoro-1-(oxetane-3-yl)piperidine-4-yl)-1H-pyrazole-4-yl)amino)((1-methylcyclopropyl)amino)-7H-pyrrolo[2,3-d]pyrimidine-5-carbonitrile]
- remaining binding at 1 µM [1]: 73%
- remaining binding at 1 µM [2]: 4%
- remaining binding at 1 µM [3]: 31%
- remaining binding at 1 µM [4]: 0.6%
- remaining binding at 1 µM [5]: 100%
- remaining binding at 1 µM [6]: 88%
- remaining binding at 1 µM [7]: 3.4%
- remaining binding at 1 µM [8]: 0.45%
- remaining binding at 1 µM [9]: 19%
- remaining binding at 1 µM [10]: 1.6%
